The text below walks through data of publication PMC9669269 (Journal of Computational Chemistry, 2022).

Test in all cases: HTRF displacement of biotinylated H4Ac4 peptide
Assay type in all cases: binding
(In TR-FRET formats the signal depends on donor and acceptor labels being close together.)

The target of experiment [1] is T1, CaBD2 (CaBdf1 BD2) (Candida albicans, UniProt Q5A4W8).
T1 sequence (Q5A4W8 386-491): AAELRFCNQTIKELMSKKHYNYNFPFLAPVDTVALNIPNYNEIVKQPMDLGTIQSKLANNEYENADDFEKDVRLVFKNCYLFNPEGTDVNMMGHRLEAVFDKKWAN

The target of experiment [2] is T2, CaBD1 (CaBdf1 BD1) (Candida albicans, UniProt Q5A4W8).
T2 sequence (Q5A4W8 193-327): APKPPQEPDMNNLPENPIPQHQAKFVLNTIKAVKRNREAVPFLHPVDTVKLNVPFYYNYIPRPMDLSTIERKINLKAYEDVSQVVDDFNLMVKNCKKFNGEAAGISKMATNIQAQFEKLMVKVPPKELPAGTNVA

Experiment [3] has as its target hBrd4 BD1 (Homo sapiens, UniProt O60885).
The target in experiment [4] is hBrd4 BD2 (Homo sapiens, UniProt O60885).

Consider `Cc1ccc(Nc2c(-c3ccc(O)cc3)nc3c(Cl)cccn23)cc1` [1e, 4‐(8‐Chloro‐3‐(p‐tolylamino)imidazo[1,2‐a]pyridin‐2‐yl)phenol], for which the 50% inhibitory concentration (IC50) (in general, the point on the concentration scale where inhibition reaches its midpoint) is 1.5 ± 0.42 µM in experiment [1], greater than 20 µM in experiment [2], greater than 20 µM in experiment [3] and 16 ± 1.2 µM in experiment [4].

As for `Cc1ccc(Nc2c(-c3ccc(O)cc3)nc3c(Br)cccn23)cc1` [1f, 4‐(8‐Bromo‐3‐(p‐tolylamino)imidazo[1,2‐a]pyridin‐2‐yl)phenol], the IC50 in experiment [1] was 0.75 ± 0.25 µM; in experiment [2], greater than 20 µM; in experiment [3] it was greater than 20 µM; in experiment [4] it was greater than 20 µM.

Regarding `Cc1cccn2c(Nc3ccc(Br)cc3)c(-c3ccc(O)cc3)nc12` [1i, 4‐(3‐([4‐Bromophenyl]amino)‐8‐methylimidazo[1,2‐a]pyridin‐2‐yl)phenol], the IC50 is 4.35 ± 0.63 µM in experiment [1], greater than 20 µM in experiment [2], greater than 20 µM in experiment [3] and 12.8 ± 3.2 µM in experiment [4].

Turning to `Cc1ccc(Nc2c(-c3ccc(O)cc3)nc3c(C)cccn23)cc1` [compound 1, imidazopyridine (1)], the IC50 in experiment [1] was 3.9 ± 0.35 µM; in experiment [2] it was greater than 20 µM; in experiment [3], greater than 20 µM; in experiment [4] it was greater than 20 µM.

As for `Cc1ccc(Nc2c(-c3ccc(O)cc3)nc3c(C)cccn23)c(O)c1` [1d, 2‐((2‐(4‐Hydroxyphenyl)‐8‐methylimidazo[1,2‐a]pyridin‐3‐yl)amino)‐5‐methylphenol], the IC50 in experiment [1] was 9.74 ± 0.19 µM; in experiment [2] it was greater than 20 µM; in experiment [3], greater than 20 µM; in experiment [4], greater than 20 µM.

For `Cc1ccc(Nc2c(-c3ccc(O)c(F)c3)nc3c(C)cccn23)cc1` [1a, 2‐Fluoro‐4‐(8‐methyl‐3‐(p‐tolylamino)imidazo[1,2‐a]pyridin‐2‐yl)phenol], the IC50 in experiment [1] was 6.3 ± 2.78 µM; in experiment [2], greater than 20 µM; in experiment [3], 14.8 ± 6.9 µM; in experiment [4], 8.7 ± 1.8 µM.

Consider `Cc1ccc(Nc2c(-c3ccc(O)cc3)nc3c(C)cccn23)cc1O` [1c, 5‐((2‐(4‐Hydroxyphenyl)‐8‐methylimidazo[1,2‐a]pyridin‐3‐yl)amino)‐2‐methylphenol], for which the IC50 is 0.78 ± 0.15 µM in experiment [1], greater than 20 µM in experiment [2], greater than 20 µM in experiment [3] and greater than 20 µM in experiment [4].

For the compound `Cc1ccc(Nc2c(-c3ccc(O)cc3F)nc3c(C)cccn23)cc1` [1b, 3‐Fluoro‐4‐(8‐methyl‐3‐(p‐tolylamino)imidazo[1,2‐a]pyridin‐2‐yl)phenol], the concentration for half-maximal inhibition (IC50) was 5.22 ± 2.12 µM in experiment [1], greater than 20 µM in experiment [2], greater than 20 µM in experiment [3] and greater than 20 µM in experiment [4].

`Cc1cccn2c(Nc3ccc(N)cc3)c(-c3ccc(O)cc3)nc12` [1h, 4‐(3‐([4‐Aminophenyl]amino)‐8‐methylimidazo[1,2‐a]pyridin‐2‐yl)phenol]: the IC50 was 0.37 ± 0.09 µM in experiment [1], greater than 20 µM in experiment [2], greater than 20 µM in experiment [3] and 2.24 ± 0.65 µM in experiment [4].

As for `Cc1ccc(Nc2c(-c3ccc(O)cc3)nc3c(I)cccn23)cc1` [1g, 4‐(8‐Iodo‐3‐(p‐tolylamino)imidazo[1,2‐a]pyridin‐2‐yl)phenol], the half-inhibitory concentration (IC50) was 1.01 ± 0.19 µM in experiment [1], greater than 20 µM in experiment [2], greater than 20 µM in experiment [3] and greater than 20 µM in experiment [4].

Regarding `Cc1cccn2c(Nc3ccc([N+](=O)[O-])cc3)c(-c3ccc(O)cc3)nc12` [1j, 4‐(8‐Methyl‐3‐([4‐nitrophenyl]amino)imidazo[1,2‐a]pyridin‐2‐yl)phenol], the half-maximal inhibitory concentration (IC50) in experiment [1] was 4.39 ± 1.04 µM; in experiment [2], greater than 20 µM; in experiment [3] it was greater than 20 µM; in experiment [4] it was greater than 20 µM.
